Measured values from PubChem BioAssay AID489035 (Sanford-Burnham Center for Chemical Genomics, 2010).
The source made the active and inactive calls. No rule for the calls is given here. Starred links: 1 amine or outer side, 2 acyl side, 3 side chain; linkers in the order of their positions; H or OH if unused. Non-standard residues stand in square brackets, D forms with d. Residues, ends and D or L forms follow the SMILES beside them. X2 = CCC[C@@H](N[*:1])[C@H](C)C(=O)O[C@H](C(=O)[*:2])[C@@H](C)CC; X1 = CC(N[*:1])C(=O)C(C)(C)C(=O)[*:2]; NMeY = CN[C@@H](Cc1ccc(O)cc1)C(=O)O; NMeL = CN[C@@H](CC(C)C)C(=O)O; NMeV = CN[C@H](C(=O)O)C(C)C; NMeA = CN[C@@H](C)C(=O)O

System: Jurkat NF-kB reporter, TCR-induced, luciferase luminescence
Experiment: T-cell NF-kB luciferase reporter inhibition – Jurkat cells, luminescence, dose response (AID 489035)

Row | Structure (SMILES) | IC50
1 | Cc1ccc(O)c(N=Nc2nccs2)c1 | 1.79 µM
2 | Cc1noc(C)c1CSc1nc2ccccc2c(=O)n1-c1ccccc1 | 30.8 µM (inactive)
3 | CC1CCN(c2c(NCc3ccc(C(=O)N4CCc5ccccc54)cc3)c(=O)c2=O)CC1 | > 80 µM (inactive)
4 | O=[N+]([O-])c1ccc(Sc2ccc(Cl)c(Cl)c2)nc1 | 2.99 µM
5 | CC(=O)O[C@@]12CO[C@@H]1C[C@@H](O)[C@@]1(C)C(=O)[C@H](O)C3=C(C)[C@@H](OC(=O)[C@H](O)[C@@H](NC(=O)c4ccccc4)c4ccccc4)C[C@@](O)([C@@H](OC(=O)c4ccccc4)C12)C3(C)C (stereo not given in full) | < 0.16 µM
6 | CCCCCCCCCCCCCCCC[n+]1cccc(C(=O)N(CC)CC)c1 | 3.02 µM
7 | CCn1ncc(C2=NOC(C(=O)NCc3ccc(Cl)cc3)C2)c1C (stereo not given) | > 80 µM (inactive)
8 | O=c1cc(-c2ccccc2)[nH]c2cc(Cl)ccc12 | 18.8 µM
9 | Clc1cccc(Cl)c1/C=N/Nc1c(Cl)cncc1Cl | > 80 µM (inactive)
10 | Cc1ccc(N2C(=O)c3cccc4c(N)ccc(c34)C2=O)c2cccnc12 | < 0.16 µM
11 | O=C(Nc1ccc(CSc2ccccc2)cc1)c1ccc(CN2CCOCC2)cc1 | > 80 µM (inactive)
12 | CCCCCCCCCCCCCCCC[n+]1ccc(C(N)=O)cc1 | 1.49 µM
13 | COc1cc2c(c(OC)c1OC)-c1ccc(O)cc1[C@@H](NC(C)=O)CC2 | > 80 µM (inactive)
14 | CCOc1ccccc1C1CC(=O)Nc2cc3c(cc21)OCCO3 (stereo not given) | 3.96 µM
15 | COc1ccccc1C1=NOC(COc2ccc3c(C)cc(=O)oc3c2)C1 (stereo not given) | > 80 µM (inactive)
16 | COc1ccccc1-c1nnc2sc(-c3ccc(N(C)C)cc3)nn12 | > 80 µM (inactive)
17 | Cc1ccc(C(=O)Nc2cnc3ccccc3c2)cc1 | 0.37 µM
18 | CCOc1ccccc1C1CC(=O)Nc2cc(C)c(C)cc21 (stereo not given) | > 80 µM (inactive)
19 | Cc1ccc2[nH]c(-c3cccc(F)c3)cc(=O)c2c1 | > 80 µM (inactive)
20 | CCOC(=O)Nc1nc(-c2ccccc2)c(C(=O)c2ccccc2)s1 | > 80 µM (inactive)
21 | CCOCCOC(=O)c1[nH]c2c(c1C)C(=O)CC(c1ccccc1)C2 (stereo not given) | > 80 µM (inactive)
22 | COC(=O)c1cn(NC(=O)c2cc([N+](=O)[O-])ccc2F)c(=O)c2ccccc12 | 0.46 µM
23 | COc1ccc(C(=O)Nc2ccc3[nH]c(-c4cccc(OC)c4)cc(=O)c3c2)cc1 | < 0.16 µM

Row | Structure (SMILES) | IC50
24 | CCOC(=O)c1ccc(Nc2nc(N)c3cc(OC)c(OC)cc3n2)cc1 | > 80 µM (inactive)
25 | Cc1ccc(NC(=O)C2=C(c3ccccc3)S(=O)(=O)CCS2(=O)=O)cc1 | 1.61 µM
26 | NS(=O)(=O)c1ccc(Sc2nc3ccccc3s2)c([N+](=O)[O-])c1 | 0.79 µM
27 | CCC[C@H]1NC(=O)[C@H](C)N(C)C(=O)C(C)(C)C(=O)C(C)NC(=O)[C@H](Cc2ccc(OC)cc2)N(C)C(=O)[C@H](C(C)C)N(C)C(=O)CNC(=O)[C@H](CC(C)C)N(C)C(=O)CNC(=O)[C@H]([C@@H](C)CC)OC(=O)[C@H]1C (stereo not given in full) (cyclo(G[NMeL]G[NMeV][NMeY](Me)[X1][NMeA][X2])) | > 80 µM (inactive)
28 | CCOc1ccccc1NC(=O)CN(c1ccc(OC)cc1)S(=O)(=O)c1c(C)noc1C | > 80 µM (inactive)
29 | COc1cccc(-c2cc(C(=O)Nc3cc(C)n(Cc4ccc(Cl)cc4)n3)no2)c1 | > 80 µM (inactive)
30 | CCOC(=O)/C=C/S(=O)(=O)c1ccc(NC(C)=O)cc1 | 1.12 µM
31 | O=C(NCc1ccc2c(c1)OCO2)c1cc([N+](=O)[O-])ccc1N1CCOCC1 | > 80 µM (inactive)
32 | CN(C)c1ccc2c(c1)OC(N)=C(C#N)C2c1cccc(F)c1 (stereo not given) | 50.2 µM (inactive)
33 | Cc1c(C(=O)OC2CCCC2)[nH]c2c1C(=O)CC(c1ccco1)C2 (stereo not given) | > 80 µM (inactive)
34 | COc1ccc(/C=c2/sc3n(c2=O)C(c2ccccc2OC)C2=C(N=3)c3ccccc3CC2)cc1O (stereo not given) | 22.6 µM (inactive)
35 | CCOc1ccc2c(c1)OC(c1ccc(C)cc1)(C(F)(F)F)NC2=O (stereo not given) | > 80 µM (inactive)
36 | CCOc1ccccc1NC(=O)Cn1nnc(C(=O)NCc2ccco2)c1N | > 80 µM (inactive)
37 | CCCCCCCCn1c2c(c(=N)c3ccccc31)CCC2 | 3.43 µM
38 | COc1ccccc1NC(=O)C1=C(C)Nc2nc3ccccc3n2C1c1cccs1 (stereo not given) | 52.3 µM (inactive)
39 | O=[N+]([O-])c1ccc(O)c(/C=N/Nc2ccc(Cl)nn2)c1 | 54 µM (inactive)
40 | COc1ccc([C@H]2CC(=O)C=C(c3c(OC)cccc3OC)C2)cc1 | > 80 µM (inactive)
41 | O=C(N/N=C/c1c(O)ccc2ccccc12)c1ccc(Br)o1 | 60.7 µM (inactive)
42 | C[C@]12CC[C@H](O)C[C@H]1CC[C@@H]1[C@@H]2C[C@@H](O)[C@]2(C)[C@@H](C3=CC(=O)OC3)CC[C@]12O | 65.7 µM (inactive)
43 | CC(C)n1c(CN(C)Cc2ccccc2)nc2c1c(=O)n(C)c(=O)n2C | > 80 µM (inactive)
44 | CCCCCCCCCn1c2c(c(=N)c3c1CCC3)CCC2 | 7.67 µM
45 | O=C(c1cc(-c2ccncc2)nc2c(Cl)cccc12)N1CCN(c2ccccc2F)CC1 | > 80 µM (inactive)
46 | CC/C=C/CC(=O)N[C@@H](c1ccccc1)[C@@H](O)C(=O)O[C@H]1C[C@@]2(O)[C@@H](OC(=O)c3ccccc3)C3[C@](C)(C(=O)[C@H](OC(C)=O)C(=C1C)C2(C)C)[C@@H](O)C[C@H]1OC[C@@]31OC(C)=O (stereo not given in full) | > 80 µM (inactive)

Row | Structure (SMILES) | IC50
47 | CCOc1ccc2c(c1)OC(c1ccc(OC)cc1)(C(F)(F)F)NC2=O (stereo not given) | > 80 µM (inactive)
48 | COc1ccc(CCNc2cc(N3CCN(C(=O)c4ccccc4F)CC3)ccc2[N+](=O)[O-])cc1OC | > 80 µM (inactive)
49 | Cc1ccc2nc(SCC(=O)Nc3cc(C(F)(F)F)ccc3N3CCOCC3)[nH]c2c1 | > 80 µM (inactive)
50 | COc1ccc(NS(=O)(=O)c2ccc(-c3cnc(C4CC4)o3)cc2)cc1OC | > 80 µM (inactive)
51 | CCOCCOC(=O)c1[nH]c2c(c1C)C(=O)CC(c1cccs1)C2 (stereo not given) | > 80 µM (inactive)
52 | COc1cccc(/C=N/Nc2ncnc3c2ncn3Cc2ccccc2)c1O | > 80 µM (inactive)
53 | COc1ccc(Br)cc1/C(C)=N/NC1=NCCN1 | > 80 µM (inactive)
54 | COC(=O)c1[nH]c2ccc(F)cc2c1NS(=O)(=O)c1ccc(OC)cc1 | > 80 µM (inactive)
55 | CCOc1ccccc1NC(=O)Cn1nnc(C(=O)NCc2cccs2)c1N | > 80 µM (inactive)
56 | O=C(Nc1ncc(Cc2ccc(SC(F)F)cc2)s1)c1ccc(OC(F)F)cc1 | 7.42 µM
57 | CCn1nc(C)c(CNC(=O)c2ccc(OC3CCN(Cc4ccccn4)CC3)cc2)c1C | > 80 µM (inactive)
58 | CCCC(=O)Nc1nc2ccc(S(=O)(=O)N3CCCCC3)cc2s1 | > 80 µM (inactive)
59 | CCO[C@H]1OC(C(=O)NCc2nc3ccccc3[nH]2)=C[C@@H](C2CC2)[C@@H]1CCCO | > 80 µM (inactive)
60 | C[C@@H]1O[C@@H](O[C@H]2C[C@@H](O)[C@]3(CO)[C@H]4[C@H](O)C[C@]5(C)[C@@H](C6COC(=O)C6)CC[C@]5(O)[C@@H]4CC[C@]3(O)C2)[C@H](O)[C@H](O)[C@H]1O (stereo not given in full) | > 80 µM (inactive)
61 | CC1(C)Cc2nc3sc4c(=O)n(CC(=O)NCc5ccccc5)cnc4c3cc2CO1 | > 80 µM (inactive)
62 | Cc1ccc(C(=O)Nc2cccc(C(=O)O)c2)cc1 | 3.03 µM
63 | O=C(c1ccc(Cl)cc1)c1cc([N+](=O)[O-])ccc1N1CCOCC1 | > 80 µM (inactive)
64 | CCOC(=O)c1[nH]c(C)c(C(=O)Nc2cc(Cl)ccc2C)c1C | > 80 µM (inactive)
65 | Nc1ncn([C@@H]2O[C@H](CO)[C@@H](O)[C@H]2O)c(=O)n1 | 10.8 µM
66 | Cc1ccc(/C=N/NC(=O)c2c(C)nc3ccc(Br)cn23)cc1 | > 80 µM (inactive)
67 | CCOC(=O)C(C)Oc1cccc2c(=O)n(CC(=O)NCc3ccc4c(c3)OCO4)ccc12 (stereo not given) | 9.88 µM
68 | O=C(/C=C/c1cccc([N+](=O)[O-])c1)n1cnc2ccccc21 | 5.79 µM
69 | COc1cccc(N2CCN(C(=O)c3cn(Cc4ccccc4)nc3-c3cccnc3)CC2)c1 | > 80 µM (inactive)

Row | Structure (SMILES) | IC50
70 | CCOCCCNC(=O)c1cc2c(=O)n3cccc(C)c3nc2n1C | > 80 µM (inactive)
71 | C[C@]12CC[C@H](O)C[C@H]1CC[C@@H]1[C@@H]2CC[C@]2(C)[C@@H](C3=CC(=O)OC3)CC[C@]12O | 3.53 µM
72 | COc1cc2c(cc1O)CC[C@@H]1[C@@H]2CC[C@]2(C)[C@@H](O)CC[C@@H]12 | > 80 µM (inactive)
73 | Cc1cccc(N(C)S(=O)(=O)c2ccc(-c3cnc(C4CC4)o3)cc2)c1 | 23.8 µM (inactive)
74 | COc1ccc(N/N=C/c2c(C(=O)O)ccc3ccccc23)cc1 | 16.4 µM
75 | Cn1c2c(c(=O)n(C)c1=O)C(C(F)(F)F)(C(F)(F)F)N=C(c1ccc(Cl)cc1)N2 | > 80 µM (inactive)
76 | Cc1cc(-n2c(C)cc(C(=O)CSc3ncnc4ccccc34)c2C)no1 | < 0.16 µM
77 | O=C(N[C@@H](Cc1ccccc1)C(=O)CCl)OCc1ccccc1 | 0.54 µM
78 | COc1ccccc1N1CCN(C(=O)c2ccc(-c3ccc(Cl)cc3)o2)CC1 | 34.6 µM (inactive)
79 | Cc1c(C(=O)N/N=C/c2ccc(Cl)cc2)[nH]c2ccc(Cl)cc12 | > 80 µM (inactive)
80 | O=C(Nc1ccc(S(=O)(=O)N2CCOCC2)cc1)c1ccc(CN2CCc3ccccc3C2)cc1 | 12.7 µM
81 | COC(=O)c1ccccc1NC(=O)Cn1c(-c2nonc2N)nc2ccccc21 | 43.6 µM (inactive)
82 | CCCCOc1ccccc1C1CC(=O)NC2=C1C(=O)CCC2 (stereo not given) | > 80 µM (inactive)
83 | CC(=O)c1ccc(N2CCN(S(=O)(=O)c3ccc4c(c3)CC(C)N4C(=O)C3CC3)CC2)cc1 (stereo not given) | > 80 µM (inactive)
84 | O=C(c1cn(Cc2ccccc2)nc1-c1ccccc1)N1CCN(c2ccccn2)CC1 | > 80 µM (inactive)
85 | C=CCn1c(SCc2c(C)noc2C)nc2ccccc2c1=O | 23 µM (inactive)
86 | COc1ccc(C2=NOC(C(=O)NCc3cccs3)C2)cc1OC (stereo not given) | > 80 µM (inactive)
87 | C=C(C)[C@@]12OC3(c4ccccc4)O[C@@H]1C1[C@@H]4O[C@]4(CO)[C@@H](O)[C@]4(O)C(=O)C(C)=C[C@H]4[C@@]1(O3)[C@H](C)[C@H]2OC(=O)/C=C/C=C/c1ccccc1 (stereo not given in full) | 27.9 µM (inactive)
88 | CCOC(=O)Nc1nc(-c2ccccc2)c(C(=O)c2ccc(Cl)cc2)s1 | 4.16 µM
89 | O=c1cc(-c2cccc(F)c2)[nH]c2ccccc12 | > 80 µM (inactive)
90 | O=S(=O)(c1ccc2c(c1)OCCO2)N1CCN(c2ncnc3sccc23)CC1 | > 80 µM (inactive)
